Laboratory results from patent US7799326B2, “Methods and compositions for cathespin k complex-mediated disorders” (Mount Sinai School of Medicine, priority 2001, dated 2010).

Tests used:
cathepsin K/CSA complex = target: T1, cathepsin K/CSA complex (Homo sapiens, UniProt P43235); experiment: Soluble type I collagen digestion by cathepsin K, analysed by SDS-PAGE; type: biochemical; conditions: 28° C.; for effect on type I collagen degradation by cathepsin K in the presence of CSA: 0.15% test substance + 0.15% CSA, 800 nM cathepsin K; for collagenase activity of the complex formed with cathepsin K (type I collagen): 0.15% polymer, pH 5.5
T1 construct: may comprise the native mature cathepsin K peptide
T1 sequence (P43235 115-329): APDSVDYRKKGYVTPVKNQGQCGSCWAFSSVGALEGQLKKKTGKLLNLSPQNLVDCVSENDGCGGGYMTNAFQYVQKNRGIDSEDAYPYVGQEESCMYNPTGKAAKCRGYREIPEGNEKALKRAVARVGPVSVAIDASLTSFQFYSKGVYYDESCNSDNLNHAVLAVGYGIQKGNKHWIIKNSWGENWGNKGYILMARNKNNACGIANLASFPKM
Experimental: Soluble type I bovine collagen was digested with 800 nM cathepsin K at 28° C., in 100 mM sodium acetate buffer pH 5.5, containing 2.5 mM EDTA/DTT. The reaction was stopped by the addition of 10 μM E-64 after various time periods and the samples were analyzed by 4-20% SDS-Page. […] The reaction was stopped by the addition of 10 μM E-64 after 8 h of incubation and the samples were analyzed by 4-20% SDS-polyacrylarnide electrophoresis.
Soluble type I bovine collagen was digested with 800 nM purified recombinant human cathepsin K and gelatin (soluble type I collagen was heated for 20 min at 70 C) with 0.5 nM cathepsin K at 28° C. and 37 C, in 100 mM sodium acetate buffer, pH 5.5, containing 2.5 mM EDTA/DTT. […] The reaction was stopped by the addition of 10 μM E-64 after 8 h of incubation and the samples were analyzed by 4-20% SDS-polyacrylamide electrophoresis.
The reactions were stopped by the addition of 10 μM E-64 and the samples were analyzed by 4-20% SDS-Page.
(§1) The elution buffer was 100 mM sodium acetate, pH 5.5, 1 mM EDTA/DTT. […] The reaction was stopped by the addition of 10 μM E-64 and the samples were analyzed by 4-20% SDS-Page.
as §1
The reaction was stopped by the addition of 10 μM E-64 and the samples were analyzed by 4-20% SDS-Page.
as §1, §1

cathepsin K [1] = target: T2, cathepsin K (Homo sapiens, UniProt P43235); experiment: Superdex 200 gel filtration of cathepsin K preincubated with polymers; type: binding; conditions: for effect on CSA/cathepsin K complex formation: 0.15% test substance + 0.15% CSA, gel filtration; for formation of a high molecular weight complex with cathepsin K: 0.15% test substance without CSA; for elution volume (Ve) of the complex with cathepsin K: 30 μg cathepsin K preincubated with 0.15% polymer, Superdex 200, no NaCl
T2 construct: may comprise the native mature cathepsin K peptide
T2 sequence (P43235 115-329): T1 sequence (P43235 115-329)
Experimental: The elution buffer was 100 mM sodium acetate, pH 5.5, 1 mM EDTA/DTT.
The protein elution was recorded at OD280 nm and fractions were assayed for the hydrolysis of the cathepsin K substrate Z-Leu-Arg-MCA. […] The sample was loaded into the well of a 0.5% agarose gel and separated at room temperature at 55 V, 250 mA for 30 min in a running buffer containing 125 mM sodium acetate, pH 5.0,0.5 mM EDTA, 1 mM DTT, 40 mM NaCl, and 0.1% Chaps. The gel was dried and subsequently exposed to an X-ray film. The conditions for lane 3 were modified by the addition of 300 mM NaCl into the agarose gel and running buffer. […] Activity assays were performed using Z-LR-MCA as substrate in 100 mM sodium acetate buffer, pH 5.5, containing 2.5 mM EDTA/DTT and 0.5 nM recombinant human cathepsin K.
30 μg of cathepsin K were preincubated with elution buffer containing 0.15% low molecular fraction (V3 67.2 ml) of dermatan sulfate (DS) 0.15% 2-15 kD poly-D-Glu, or 0.15% 10 kD dextran sulfate for 20 min, and then applied to a Superdex 200 column. The elution buffer was 100 mM sodium acetate, pH 5.5, containing 1 mM EDTA/DTT.
as §1, §1, §1, §1

CSA/Cat K complex = target: T3, CSA/Cat K complex (Homo sapiens, UniProt P43235); experiment: Fluoresceinamine-labeled CSA/Cat K complex formation fluorescence assay; type: binding; conditions: 120 nM Cat K; 0.6 μg/ml FL-CSA; excitation 300 nm, emission 604 nm
T3 construct: may comprise the native mature cathepsin K peptide
T3 sequence (P43235 115-329): T1 sequence (P43235 115-329)
Experimental: Curve 1: 120 nM Cat K, then 0.6 μg/ml FL-CSA, and then 3 μg/ml dextran sulfate; Curve 2:,0.6 μg/ml FL-CSA, then 120 nM Cat K, and then 3 μg/ml dextran sulfate.
The pH was adjusted to pH 11 by addition of 5 M NaOH. […] The mixture was kept overnight at 4° C. for the coupling reaction. Subsequently, the mixture was concentrated to 1 ml using a SpeedVac concentrator and purified on a PD-10 column and eluded by 50 mM sodium acetate buffer, pH 5.5.
Cat K at a final concentration of 120 nM was added to 1 ml 100 mM sodium acetate buffer, pH 5.5 containing 2 mM EDTA/DTT using 2 milliliter cuvettes. The fluorescence signal for the protein alone is close to zero. […] After the addition of complex formation inhibitors, the fluorescence signal dropped to zero (FIG. 1). This assay allows the simple and convenient screening of compounds capable to interfere with complex formation.

cathepsin K [2] = target: T2, cathepsin K; experiment: Agarose gel electrophoretic mobility shift assay of cathepsin K complexes; type: binding; conditions: for effect on CSA/cathepsin K complex formation: 0.15% test polymer + 0.15% CSA, mobility shift; for affinity to cathepsin K relative to CSA: inferred from competition with 0.15% CSA
Experimental: The protein elution was recorded at OD280 nm and fractions were assayed for the hydrolysis of the cathepsin K substrate Z-Leu-Arg-MCA. […] The gel was dried and subsequently exposed to an X-ray film. […] Activity assays were performed using Z-LR-MCA as substrate in 100 mM sodium acetate buffer, pH 5.5, containing 2.5 mM EDTA/DTT and 0.5 nM recombinant human cathepsin K.
After exposure of the dried gel to an X-ray film, the signal of free cathepsin K was densitometrically determined and the amount of cathepsin K in the complex was calculated (cat Kcompley=cat Ktotal−cat Kfree).
Samples were subsequently mixed with non-reducing protein sample buffer, DNA dye, and melted agarose gel (melted at 37 C; 0.4% final concentration) at 37 C and embedded into a pre-made wells of a 0.5% agarose gel (running conditions: 25° C.; 55 V, 250 mA for 30 min). The gel was stained with toluidine blue for glycosaminoglycans and coomassie blue for protein.

[3] = Mobility shift assay of complex formation of proteases with CSA; type: binding; conditions: 50 ng [125I]DCG-04 labeled protease; 0.1% CSA
Experimental: The gel was run at about 25° C. 55 V, 250 mA for 30 min, then dried and developed the radio signal on a film.

## CC(=O)N[C@H]1C(O)O[C@H](CO)[C@H](OS(=O)(=O)O)[C@@H]1O[C@@H]1OC(C(=O)O)=C[C@H](O)[C@H]1O (stereo partly drawn) [CSA disaccharide, chondroitin disaccharide-4S]
Cathepsin K/CSA complex
  effect on type I collagen degradation by cathepsin K in the presence of CSA: identical
Cathepsin K [1]
  effect on CSA/cathepsin K complex formation: did not interfere with complex formation
  formation of a high molecular weight complex with cathepsin K: unable to generate high-molecular complexes with cathepsin K
CSA/Cat K complex
  effect on fluorescence signal of FL-CSA/Cat K complex: did not show any effect

## [Cl-].[Na+] [NaCl]
Cathepsin K [1]; elution in the presence of 300 mM NaCl, cathepsin K/CSA mixture
  effect on cathepsin K complex formation: inhibits the formation of cathepsin K complexes
Cathepsin K [2]; 300 mM NaCl in agarose gel and running buffer, 0.1% CSA
  effect on cathepsin K/CSA complex: the complex dissociated

## Cat L: human cathepsin L, closely related cysteine protease
[3]
  complex formation with CSA: Only cathepsin K formed a stable complex

## dermatan sulfate
Cathepsin K [1]
  elution volume (Ve) of the complex with cathepsin K: 14 mL
CSA/Cat K complex
  effect on fluorescence signal of FL-CSA/Cat K complex: decrease the fluorescence signal

## dextran
Cathepsin K/CSA complex
  effect on type I collagen degradation by cathepsin K in the presence of CSA: identical
Cathepsin K [1]
  formation of a high molecular weight complex with cathepsin K: did not form a high molecular weight complex with cathepsin K
CSA/Cat K complex
  effect on fluorescence signal of FL-CSA/Cat K complex: did not show any effect

## dextran sulfate
Cathepsin K/CSA complex
  collagenase activity of the complex formed with cathepsin K (type I collagen): did not exhibit collagenase activity
  effect on type I collagen degradation by cathepsin K in the presence of CSA: prevents the degradation of type I collagen
Cathepsin K [1]
  elution volume (Ve) of the complex with cathepsin K: 13.5 mL
  effect on CSA/cathepsin K complex formation: prevented the formation of a cathepsin K/CSA complex
Cathepsin K [2]
  effect on CSA/cathepsin K complex formation: blocked
  affinity to cathepsin K relative to CSA: bind with a higher affinity to cathepsin K than CSA
CSA/Cat K complex
  effect on fluorescence signal of FL-CSA/Cat K complex: decrease the fluorescence signal

## heparan sulfate
CSA/Cat K complex
  effect on fluorescence signal of FL-CSA/Cat K complex: decrease the fluorescence signal

## poly-D-Glu
Cathepsin K/CSA complex
  collagenase activity of the complex formed with cathepsin K (type I collagen): did not exhibit collagenase activity
  effect on type I collagen degradation by cathepsin K in the presence of CSA: prevents the degradation of type I collagen
Cathepsin K [1]
  elution volume (Ve) of the complex with cathepsin K: 14.2 mL
  effect on CSA/cathepsin K complex formation: prevented the formation of a cathepsin K/CSA complex
Cathepsin K [2]
  effect on CSA/cathepsin K complex formation: blocked
  affinity to cathepsin K relative to CSA: bind with a higher affinity to cathepsin K than CSA

## poly-alanine
CSA/Cat K complex
  effect on fluorescence signal of FL-CSA/Cat K complex: did not show any effect

## poly-aspartic acid
CSA/Cat K complex
  effect on fluorescence signal of FL-CSA/Cat K complex: decrease the fluorescence signal

## poly-glutamic acid
CSA/Cat K complex
  effect on fluorescence signal of FL-CSA/Cat K complex: decrease the fluorescence signal

## poly-lysine
CSA/Cat K complex
  effect on fluorescence signal of FL-CSA/Cat K complex: did not show any effect
